Measured values published in PMC2854136 (Biochemistry, 2009).
Values joined by “and” are separate entries in the source; they are usually repeats but may differ in a detail not shown here. Equal values may be shown once. Read-outs that look alike come from different tables or passages of the source.

Assays:
[1] = molecular target: T1, Escherichia coli glutaminyl-tRNA synthetase (GlnRS) (Escherichia coli, UniProt P00962); format: biochemical
Target sequence in this assay (P00962 2-554): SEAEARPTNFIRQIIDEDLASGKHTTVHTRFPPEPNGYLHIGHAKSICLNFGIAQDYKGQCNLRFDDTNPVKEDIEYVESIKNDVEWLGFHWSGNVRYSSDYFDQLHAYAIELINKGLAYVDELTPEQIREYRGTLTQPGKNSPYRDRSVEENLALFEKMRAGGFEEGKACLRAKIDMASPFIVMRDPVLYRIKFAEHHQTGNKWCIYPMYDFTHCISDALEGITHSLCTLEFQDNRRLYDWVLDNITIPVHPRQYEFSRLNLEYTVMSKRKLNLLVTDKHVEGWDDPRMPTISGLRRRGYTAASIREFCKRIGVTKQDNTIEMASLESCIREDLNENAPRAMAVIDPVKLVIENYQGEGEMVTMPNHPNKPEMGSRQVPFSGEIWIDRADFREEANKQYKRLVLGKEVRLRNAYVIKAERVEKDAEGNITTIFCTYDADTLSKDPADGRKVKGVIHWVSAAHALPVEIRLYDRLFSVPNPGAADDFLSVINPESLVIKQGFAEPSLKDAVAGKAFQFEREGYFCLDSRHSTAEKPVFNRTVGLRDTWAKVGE

[2] = molecular target: T1, Escherichia coli glutaminyl-tRNA synthetase (GlnRS); assay: Misacylation of tRNA^Gln with glutamate; format: biochemical; conditions: very high glutamate concentrations, single-turnover conditions
Target sequence in this assay (P00962 whole entry): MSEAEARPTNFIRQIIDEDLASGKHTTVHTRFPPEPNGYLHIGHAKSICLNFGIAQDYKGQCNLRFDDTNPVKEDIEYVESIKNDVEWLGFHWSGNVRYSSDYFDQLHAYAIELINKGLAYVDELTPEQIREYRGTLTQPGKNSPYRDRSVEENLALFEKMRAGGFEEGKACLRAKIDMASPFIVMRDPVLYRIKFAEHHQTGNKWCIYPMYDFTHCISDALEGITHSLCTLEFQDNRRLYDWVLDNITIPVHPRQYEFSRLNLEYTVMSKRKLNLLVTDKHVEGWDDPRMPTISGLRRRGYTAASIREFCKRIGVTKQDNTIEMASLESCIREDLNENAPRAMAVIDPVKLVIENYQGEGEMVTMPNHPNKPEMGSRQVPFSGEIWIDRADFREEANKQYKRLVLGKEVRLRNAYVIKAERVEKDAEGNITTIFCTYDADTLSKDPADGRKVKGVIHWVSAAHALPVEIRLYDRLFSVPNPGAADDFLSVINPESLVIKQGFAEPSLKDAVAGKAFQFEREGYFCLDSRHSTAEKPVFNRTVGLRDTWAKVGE

[3] = molecular target: T1, Escherichia coli glutaminyl-tRNA synthetase (GlnRS); format: biochemical; conditions: 3′-dATP versus ATP
Target sequence in this assay (P00962 2-554): as the sequence (P00962 2-554) above

[4] = molecular target: T1, Escherichia coli glutaminyl-tRNA synthetase (GlnRS); conditions: wild-type GlnRS, cited from earlier work
Target sequence in this assay (P00962 2-554): as above

Molecule | fold diminution of kcat from wild-type (ATP) reaction ([1]; 3′-dATP versus ATP) | fold elevation of Km (ATP/3′-dATP) from wild-type (ATP) reaction ([1]; 3′-dATP versus ATP) [fold] | fold elevation of Km (GLN) from wild-type (ATP) reaction ([1]; 3′-dATP versus ATP) [fold] | Km ([1]; read-out: Km (ATP/3′-dATP), wild-type GlnRS, Km for 3′-dATP) [µM] | kcat ([1]; wild-type GlnRS, 3′-dATP in place of ATP, 50 nM enzyme, 12.5 μM tRNA, 37 °C) [s⁻¹] | misacylation of tRNA^Gln with glutamate using 3′-dATP [2] | fold diminution of kobs from wild-type (ATP) reaction [3] [fold] | Km ([4]; read-out: Km (ATP/3′-dATP), Km for ATP) [µM] | kcat ([4]; ATP-mediated glutaminylation, 37 °C) [s⁻¹]
3′-dATP | 70 fold and 71 fold | 2 | 16 | 410 ± 30 | 0.045 ± 0.02 | unable to detect any reaction | 47 |  | 
Nc1ncnc2c1ncn2[C@@H]1O[C@H](COP(=O)(O)OP(=O)(O)OP(=O)(O)O)[C@@H](O)[C@H]1O [ATP] |  |  |  |  |  |  |  | 200 ± 20 | 3.2 ± 0.5
